# How the values were obtained:
# Blackgrass [1] = assay: Herbicidal activity test, foliage treatment; type: in vivo, Alopercurus myosuroides; parameters: key: 0: situations in which the condition of sprouting or vegetation at the time of examination of the plant utilized for the test was compared with and showed totally or substantially no difference with that of the untreated application; 10: situations in which the plant completely withered or the sprouting or vegetation was completely suppressed; conditions: sprayed onto the foliage of plants cultivated 10 days, investigated after 16 days in a greenhouse
# Protocol: (§1) Soil was packed into a round plastic pot having a diameter of 10 cm and depth of 10 cm. Barnyardgrass, Blackgrass, Ivyleaf morningglory were seeded and cultivated in a greenhouse for 10 days. Five (5) parts of the test compound, 6 parts of sorpol3005X (Toho Chemical Company) and 89 parts of xylene were well mixed to produce an emulsion. A certain amount thereof was diluted with water containing 0.1% (v/v) of a sticking agent at a proportion of 1000 L for 1 hectare and was spread uniformly with a spray-gun onto the all sides of the foliage from above the plant cultivated in the above pot. After cultivating the plants for 16 days in a greenhouse, the herbicidal activity of the test compound was investigated.
# (§2) In the above Tables 3 and 4, the strength of the herbicidal activity is shown stepwise as 0, 1, 2, 3, 4, 5, 6, 7, 8, 9, and 10.
# Ivyleaf morningglory [2] = assay: Herbicidal activity test, soil surface treatment; type: in vivo, Ipomoea hederacea; parameters: key: 0: situations in which the condition of sprouting or vegetation at the time of examination of the plant utilized for the test was compared with and showed totally or substantially no difference with that of the untreated application; 10: situations in which the plant completely withered or the sprouting or vegetation was completely suppressed; conditions: 500 g/ha, sprayed onto the surface of the soil after seeding, investigated after 19 days in a greenhouse
# Protocol: as §1, with “seeded.” for “seeded and cultivated in a greenhouse for 10 days.”, “surface” for “all sides”, “soil.” for “foliage from above the plant cultivated in the above pot.”, “19” for “16”, “activity” for “activity of the test compound”
# as §2
# Ivyleaf morningglory [3] = assay: Herbicidal activity test, foliage treatment; type: in vivo, Ipomoea hederacea; parameters: key: 0: situations in which the condition of sprouting or vegetation at the time of examination of the plant utilized for the test was compared with and showed totally or substantially no difference with that of the untreated application; 10: situations in which the plant completely withered or the sprouting or vegetation was completely suppressed; conditions: sprayed onto the foliage of plants cultivated 10 days, investigated after 16 days in a greenhouse
# Protocol: as §1, §2
# Blackgrass [4] = assay: Herbicidal activity test, soil surface treatment; type: in vivo, Alopercurus myosuroides; parameters: key: 0: situations in which the condition of sprouting or vegetation at the time of examination of the plant utilized for the test was compared with and showed totally or substantially no difference with that of the untreated application; 10: situations in which the plant completely withered or the sprouting or vegetation was completely suppressed; conditions: 500 g/ha, sprayed onto the surface of the soil after seeding, investigated after 19 days in a greenhouse
# Protocol: as §1, with “seeded.” for “seeded and cultivated in a greenhouse for 10 days.”, “surface” for “all sides”, “soil.” for “foliage from above the plant cultivated in the above pot.”, “19” for “16”, “activity” for “activity of the test compound”
# as §2
# Barnyardgrass [5] = assay: Herbicidal activity test, soil surface treatment; type: in vivo, Echinochloa crus-galli; parameters: key: 0: situations in which the condition of sprouting or vegetation at the time of examination of the plant utilized for the test was compared with and showed totally or substantially no difference with that of the untreated application; 10: situations in which the plant completely withered or the sprouting or vegetation was completely suppressed; conditions: 500 g/ha, sprayed onto the surface of the soil after seeding, investigated after 19 days in a greenhouse
# Protocol: as §1, with “seeded.” for “seeded and cultivated in a greenhouse for 10 days.”, “surface” for “all sides”, “soil.” for “foliage from above the plant cultivated in the above pot.”, “19” for “16”, “activity” for “activity of the test compound”
# as §2
# Barnyardgrass [6] = assay: Herbicidal activity test, foliage treatment; type: in vivo, Echinochloa crus-galli; parameters: key: 0: situations in which the condition of sprouting or vegetation at the time of examination of the plant utilized for the test was compared with and showed totally or substantially no difference with that of the untreated application; 10: situations in which the plant completely withered or the sprouting or vegetation was completely suppressed; conditions: sprayed onto the foliage of plants cultivated 10 days, investigated after 16 days in a greenhouse
# Protocol: as §1, §2
# [7] = tested on: present invention protein (A1); type: in vitro ADME, Streptomyces phaeochromogenes IFO12898; conditions: E. coli JM109/pKSN657F cell suspension, compound at 100 ppm, shaking at 30° C., ethyl acetate layer, HPLC
# Protocol: E. coli JM109/pKSN657F was cultured overnight at 37° C. in 3 ml of TB medium containing 50 μg/ml of ampicillin. A milliliter (1 ml) of the obtained culture medium was transferred to 100 ml of TB medium containing 50 μg/ml of ampicillin and cultured at 26° C. When OD660 reached about 0.5, 5-aminolevulinic acid was added to the final concentration of 500 μM, and the culturing was continued. Thirty (30) minutes thereafter, IPTG was added to a final concentration of 1 mM, and there was further culturing for 20 hours.
# The cells were recovered from the culture medium, washed with 0.1M tris-HCl buffer (pH7.5) and suspended in 10 ml of 0.1M Tris-HCl buffer containing 1% glucose. Compound (VI) was added to the obtained cell suspension to a final concentration of 100 ppm and that was incubated with shaking at 30° C. At each of 0 hours after and 1 day after the start of shaking, 2 ml of the cell suspension were fractioned. Fifty microliters (50 μl) of 2N HCl were added to each and those were extracted with 2 ml of ethyl acetate. The obtained ethyl acetate layers were analyzed on a HPLC under reaction condition 1. Compared to the concentration of compound (VI) detected from the ethyl acetate layer prepared from the cell suspension at 0 hours after the start of shaking, the concentration of compound (VI) detected from the ethyl acetate later prepared from the cell suspension at 1 day after the start of shaking was lower. Further a peak, which was not detected from the ethyl acetate layer prepared from the cell suspension at 0 hours after the start of shaking, was detected from the ethyl acetate layer prepared from the cell suspension at 1 day after the start of shaking Mass spectrometry of the compound contained in said peak was conducted. […]
# Other than utilizing compound (VIII) instead of compound (VI), there was conducted in accordance with the method described in Example 41(6), a culturing of E. coli JM109/pKSN657F, preparation of the cell suspension solution, incubation with shaking of the cell suspension solution to which compound (VIII) was added, reagent preparation from the cell suspension solution and HPLC analysis of the reagents. Compared to the concentration of compound (VIII) detected from the ethyl acetate layer prepared from the cell suspension at 0 hours after the start of shaking, the concentration of compound (VIII) detected from the ethyl acetate layer prepared from the cell suspension at 1 day after the start of shaking was lower. Further two peaks, which were not detected from the ethyl acetate layer prepared from the cell suspension at 0 hours after the start of shaking, were detected from the ethyl acetate layer prepared from the cell suspension at 1 day after the start of shaking Mass spectrometry of the compounds contained in said peaks were conducted. […]
# [8] = tested on: present invention protein (A1); assay: Metabolism of compounds by the present invention protein (A1), reaction solution, HPLC; type: in vitro ADME, Streptomyces phaeochromogenes IFO12898; conditions: 12.5 ppm of compound, components A, B, C, 20 μl supernatant fraction of Example 4(2), 30° C. for 10 minutes
# Protocol: There was prepared 100 μl of a reaction solution of 50 mM potassium phosphate buffer (pH7.0) containing 5 ppm of compound (XII), 3 mM of […] (hereinafter, referred to as “component A”) (Oriental Yeast Company), 1 mg/ml of a ferredoxin derived from spinach (hereinafter referred to as “component B”) (Sigma Company), 0.15 U/ml of ferredoxin reductase (hereinafter, referred to as “component C”) (Sigma Company) and 20 μl of the supernatant fraction recovered in Example 4(2). The reaction solution was maintained at 30° C. for 10 minutes. Further, there was prepared and maintained similarly 100 μl of a reaction solution of a 50 mM potassium phosphate buffer (pH 7.0) having no addition of at least one component utilized in the composition of the above reaction solution, selected from component A, component B, component C and the supernatant fraction prepared in Example 4(2). Ten microliters (10 μl) of 2N HCl and 500 μl of ethyl acetate were added and mixed into each of the reaction solutions after the maintenance. The resulting reaction solutions were centrifuged at 8,000×g to recover 490 μl of the ethyl acetate layer. After drying the ethyl acetate layers under reduced pressure, the residue was dissolved in 100 μl of 50 mM of potassium phosphate buffer (pH7.0). Forty microliters (40 μl) of the fraction solutions (hereinafter, the fraction solution derived from the reaction solution containing component A, component B, component C and 20 μl of supernatant fraction recovered in Example 4(2) is referred to as “(XII) metabolism solution (A1);” further, the fraction solution derived from the reaction solution containing no component A, no component B, no component C and no supernatant fraction recovered in Example 4(2) is referred to as “(XII) control solution (A1)”) were analyzed on a HPLC. Compared to the concentration of compound (XII) detected from (XII) control solution (A1), the concentration of compound (XII) detected from (XII) metabolism solution (A1) was lower. Further a peak, which was not detected from the (XII) control solution (A1), was detected from the (XII) metabolism solution (A1). Mass spectrometry was conducted for the compound contained in such a peak. The mass of the compound contained in such a peak was 14 smaller than the mass of compound (XII).
# Other than utilizing 5 ppm of compound (XIII) instead of 5 ppm of compound (XII), reaction solutions were prepared and maintained similarly to the method described in Example 41(2). […] Compared to the concentration of compound (XIII) detected from (XIII) control solution (A1), the concentration of compound (XIII) detected from (XIII) metabolism solution (A1) was lower. Further a peak, which was not detected from the (XIII) control solution (A1), was detected from the (XIII) metabolism solution (A1). […]
# [9] = tested on: present invention protein (A11); assay: Metabolism of compounds by the present invention protein (A11), reaction solution, HPLC; type: in vitro ADME, Streptomyces nogalator IFO13445; conditions: 12.5 ppm of compound, components A, B, C, 20 μl supernatant fraction of Example 32(2), 30° C. for 10 minutes
# Protocol: There was prepared 100 μl of a reaction solution of 50 mM potassium phosphate buffer (pH7.0) containing 5 ppm of compound (XII), 3 mM of […] (hereinafter, referred to as “component A”) (Oriental Yeast Company), 1 mg/ml of a ferredoxin derived from spinach (hereinafter referred to as “component B”) (Sigma Company), 0.15 U/ml of ferredoxin reductase (hereinafter, referred to as “component C”) (Sigma Company) and 20 μl of the supernatant fraction recovered in Example 4(2). The reaction solution was maintained at 30° C. for 10 minutes. Further, there was prepared and maintained similarly 100 μl of a reaction solution of a 50 mM potassium phosphate buffer (pH 7.0) having no addition of at least one component utilized in the composition of the above reaction solution, selected from component A, component B, component C and the supernatant fraction prepared in Example 4(2). Ten microliters (10 μl) of 2N HCl and 500 μl of ethyl acetate were added and mixed into each of the reaction solutions after the maintenance. The resulting reaction solutions were centrifuged at 8,000×g to recover 490 μl of the ethyl acetate layer. After drying the ethyl acetate layers under reduced pressure, the residue was dissolved in 100 μl of 50 mM of potassium phosphate buffer (pH7.0). Forty microliters (40 μl) of the fraction solutions (hereinafter, the fraction solution derived from the reaction solution containing component A, component B, component C and 20 μl of supernatant fraction recovered in Example 4(2) is referred to as “(XII) metabolism solution (A1);” further, the fraction solution derived from the reaction solution containing no component A, no component B, no component C and no supernatant fraction recovered in Example 4(2) is referred to as “(XII) control solution (A1)”) were analyzed on a HPLC. Compared to the concentration of compound (XII) detected from (XII) control solution (A1), the concentration of compound (XII) detected from (XII) metabolism solution (A1) was lower. Further a peak, which was not detected from the (XII) control solution (A1), was detected from the (XII) metabolism solution (A1). Mass spectrometry was conducted for the compound contained in such a peak. […]
# Other than utilizing 20 μl of the supernatant fraction recovered in Example 32(2) instead of 20 μl of the supernatant fraction recovered in Example 4(2), the reaction solutions were prepared and maintained in accordance with the method described in Example 41(2). […] Compared to the concentration of compound (XII) detected from (XII) control solution (A11), the concentration of compound (XII) detected from (XII) metabolism solution (A11) was lower. Further a peak, which was not detected from the (XII) control solution (A11), was detected from the (XII) metabolism solution (A11). […]
compound,measurement,setting,value
C[C@@H](Oc1cc(-n2c(=O)cc(C(F)(F)F)[nH]c2=O)c(F)cc1Cl)C(=O)O [compound (III)],Herbicidal Activity Blackgrass,Blackgrass [1]; 125 g/ha,0
same,Herbicidal Activity Blackgrass,Blackgrass [1]; 500 g/ha,0
same,Herbicidal Activity Ivyleaf Morningglory,Ivyleaf morningglory [2],0
same,Herbicidal Activity Ivyleaf Morningglory,Ivyleaf morningglory [3]; 125 g/ha,0
same,Herbicidal Activity Ivyleaf Morningglory,Ivyleaf morningglory [3]; 500 g/ha,0
same,Herbicidal Activity Blackgrass,Blackgrass [4],0
same,Herbicidal Activity Barnyardgrass,Barnyardgrass [5],0
same,Herbicidal Activity Barnyardgrass,Barnyardgrass [6]; 125 g/ha,0
same,Herbicidal Activity Barnyardgrass,Barnyardgrass [6]; 500 g/ha,0
CCc1ccc(COc2ccc(-n3c(=O)cc(C(F)(F)F)n(C)c3=O)cc2)c(OC(C)C(=O)OC)c1 (stereo not shown) [compound (VI)],concentration of the compound detected from the cell suspension at 1 day compared to 0 hours after the start of shaking,[7],lower
COC(=O)C1(C)Cc2c(c(Cl)cc(F)c2-n2c(=O)cc(C(F)(F)F)n(C)c2=O)O1 (stereo not shown) [compound (VIII)],concentration of the compound detected from the cell suspension at 1 day compared to 0 hours after the start of shaking,[7],lower
C#CCN1C(=O)COc2ccc(-n3c(=O)cc(C(F)(F)F)n(C)c3=O)cc21 [compound (XI)],concentration of the compound detected from the cell suspension at 1 day compared to 0 hours after the start of shaking,[7],lower
COC(=O)CO/C(C)=C(/Oc1cc(-n2c(=O)cc(C(F)(F)F)n(C)c2=O)c(F)cc1Cl)C(=O)O [compound (XVI)],concentration of the compound detected from metabolism solution (A1) compared to control solution (A1),[8],lower
same,concentration of the compound detected from metabolism solution (A11) compared to control solution (A11),[9],lower
Cn1c(C(F)(F)F)cc(=O)n(-c2c(F)cc(Cl)c3oc(C(=O)O)cc23)c1=O [compound (XVII)],concentration of the compound detected from metabolism solution (A1) compared to control solution (A1),[8],lower
same,concentration of the compound detected from metabolism solution (A11) compared to control solution (A11),[9],lower
